Two molecules from PMC8069832, “New Amides and Phosphoramidates Containing Selenium: Studies on Their Cytotoxicity and Antioxidant Activities in Breast Cancer” (Antioxidants, 2021) can be followed below.

In test [1] the test system is HT-29. Briefly: cells. As to conditions: Homo sapiens, HT-29, 48 h, read-out: Cell growth (%) HT-29.
Test [2] relates to MCF-7. Kind of test: cells. The conditions noted are these: Homo sapiens, MCF7, 48 h, read-out: Cell growth (%) MCF-7.
Test [3] is described as follows: DPPH radical scavenging assay. As to conditions: for DPPH activity inhibition: after 30 min. As to the method: The DPPH (1,1-diphenyl-2-picrylhydrazyl radical) assay measures the hydrogen donation ability of the antioxidant to convert the stable DPPH free radical into 1,1-diphenyl-2-(2,4,6-trinitrophenyl)-hydrazine. After radical reaction with the compounds, a decrease in the absorbance was detected at 517 nm, which is accompanied by a change of color from violet to light-yellow. The target compounds were dissolved in methanol to make 1 mg/mL stock solutions, which were diluted to five concentrations as test samples. Ascorbic acid was used as a standard, and the experiment was carried out on 96-well plates. The DPPH solution was prepared at a 100 µM concentration. For each test, 100 µL of DPPH solution was added to 100 µL of methanolic solution containing the tested derivatives, and the absorbance was determined at different time points. All the measurements were carried out in triplicate. Results were expressed as the percentage of the radical scavenged, calculated using the following formula:(1) % DPPH radical scavenging=Acontrol − Asample/Acontrol × 100 where Acontrol refers to the absorbance of the negative control, and Asample refers to the absorbance of the tested compounds. Results are expressed as a percentage of DPPH radical scavenged ± SEM.
. Ascorbic acid and Trolox were used as radical scavenger gold standards. […]. No correlation was found for either structure–radical scavenging activity or antitumor–radical scavenging activity, except for compound I.2f, one of the selected cytotoxic agents. To further confirm this antioxidant activity, three compounds (I.1e, I.1g and I.2i) were also evaluated as DPPH radical scavengers at a lower concentration of 0.003 mg/mL (Figure 3B).
On the technique in general: The DPPH test is a chemical assay of radical scavenging.

The test system of test [4] is CCRF-CEM. Kind of test: cells. As to conditions: Homo sapiens, 48 h, read-out: Cell growth (%) CCRF-CEM.

For the molecule `N#C[Se]c1ccc(NC(=O)c2cccs2)cc1` [I.2i], the activity at 10 µM in test [1] turned out to be 85.3%; in test [2], 74.5%; in test [4], 43.6%. Besides, the “DPPH radical scavenging activity” value in test [3] (0.003 mg/mL) is given as “some moderate effect was observed”; in test [3] (0.03 mg/mL, 0-120 min), “the most active radical scavenger”. Besides, the DPPH activity inhibition entry in test [3] (0.03 mg/mL) is reported as “greater than 35%”.
With `N#C[Se]c1ccc(NC(=O)c2ccno2)cc1` [I.2j], the values for the activity at 10 µM in test [1], in test [2] and in test [4] were 90.8%, 91% and 48.4%, respectively. Besides, in test [3] (0.03 mg/mL), the DPPH activity inhibition result is reported as “greater than 35%”.
